Results from patent US20210198256A1, “COMPOUNDS FOR THE DEGRADATION OF BRD9 OR MTH1” (C4 Therapeutics, Inc., priority 2018, published 2021).

What follows are compounds tested on SMART-CAR_MTH1-WT (Jurkat.2 cells) (assay: HTFC Assay (HTFC DC50)). Details: Jurkat.2 (SMART-CAR_MTH1-WT) cells, 4 hours at 37° C., FITC anti-HA staining, flow cytometry.
Format: cell-based, human
Experimental: FITC anti-HA.11 epitope tag antibody (Biolegend #901507) FITC Mouse IgG1 k isotope control antibody (Biolegend #400108)
Dry dispense 10 nL/well of compound+90 […] into 96-well V-bottom plates: 4 compounds/plate in 11-point dose response in biological duplicates. Column 12 as DMSO controls.
• 1. Plate Jurkat.2 (SMART-CAR_MTH1-WT) cells with Combi on top of dry dispensed compound: 500,000 cells/mL, 100 uL/well • 2. Incubate for 4 hours at 37° C. • 3. Fixation, permeabilization, and staining: • a. Centrifuge at 1500 rpm for 7 minutes, remove supernatant. • b. Add 100 μl of Fixation/Permeabilization Solution, seal plates, vortex, pulse spin, and incubate at 4° C. for 30 minutes. • c. Centrifuge at 1500 rpm for 7 minutes, remove supernatant. • d. Dilute BD Perm/Wash Buffer to 1× with milliQ water. • e. Wash with 200 uL of BD Perm/Wash Buffer, seal plates, vortex. • f. Centrifuge at 1500 rpm for 7 minutes, remove supernatant. • g. Wash with 200 uL of BD Perm/Wash Buffer, seal plates, vortex. (Option to stop, store at 4° C. if needed) • h. Centrifuge at 1500 rpm for 7 minutes, remove supernatant. • i. Add 50 uL BD Perm/Wash Buffer containing 1:1000 of HA-FITC (Well A12:D12) or IgG-FITC (Well F12:H12) directly conjugated antibody, seal plates, vortex, pulse spin, and incubate at 4° C. for 1 hour. • j. Centrifuge at 1500 rpm for 7 minutes, remove supernatant. • k. Wash with 200 uL of BD Perm/Wash Buffer, seal plates, vortex. • 4. Centrifuge at 1500 rpm for 7 minutes, remove supernatant. • a. Resuspend in 200 ul of BD Perm/Wash Buffer. (Option to stop, store at 4° C. if needed)
• 1. Use analysis from template HTFC file. • 2. Export statistics by going to Tools>Group stats, save as a .csv file with the plate barcode as the name. • 3. Remove all columns from this file except for “Well”, “Sample ID”, “Date”, and “HA+.Mean.Y Mean for HA+ gated by P01.cells”. • 4. Create a New DB Analysis in Scinamic using the “HTFC-Cell Pharm” template. • 5. Load Incyte file “barcode”.csv. • 6. Load Echo file with the generated Echo report (P:\LabData\Echo\Project\SMARTCAR\Echo Report\Labcyte Echo Dose-Response) • 7. Edit Platemap.xlsx with the plate barcodes. • 8. Load Plate Map with this file. • 9. Cleanup compound Ids, mask control outliers, and assign curves.
Using the above assay the HTFC DC50 data was determined for the compounds in Table 2 below.
Example 6: HiBit and HTFC DC50 Data for Representative Compounds of the Present Invention

DC50 [µM]	SMILES
< 0.1	COc1cc2ncc(C(=O)NC(C)(C)C)c(Nc3ccccc3)c2cc1-c1ccc(C(=O)NCCCCn2cc(CNc3cccc4c3C(=O)N(C3CCC(=O)NC3=O)C4=O)nn2)nc1 (centres unmarked) [Compound 373, N-(tert-butyl)-6-(6-((4-(4-(((2-(2,6-dioxopiperidin-3-yl)-1,3-dioxoisoindolin-4-yl)amino)methyl)-1H-1,2,3-triazol-1-yl)butyl)carbamoyl)pyridin-3-yl)-7-methoxy-4-(phenylamino)quinoline-3-carboxamide]
< 0.1	CNC(=O)c1cnc2cc(OC)c(-c3ccc(C(=O)NCCCCNC(=O)C(C)Nc4cccc5c4C(=O)N(C4CCC(=O)NC4=O)C5=O)c(F)c3)cc2c1Nc1ccccc1 (centres unmarked) [Compound 367, 6-(4-((4-(2-((2-(2,6-dioxopiperidin-3-yl)-1,3-dioxoisoindolin-4-yl)amino)propanamido)butyl)carbamoyl)-3-fluorophenyl)-7-methoxy-N-methyl-4-(phenylamino)quinoline-3-carboxamide]
< 0.1	CNC(=O)c1cnc2cc(OC)c(OCC3CCN(C(=O)CCCNC(=O)CNc4cccc5c4C(=O)N(C4CCC(=O)NC4=O)C5=O)CC3)cc2c1Nc1ccccc1 (centres unmarked) [Compound 370, 6-((1-(4-(2-((2-(2,6-dioxopiperidin-3-yl)-1,3-dioxoisoindolin-4-yl)amino)acetamido)butanoyl)piperidin-4-yl)methoxy)-7-methoxy-N-methyl-4-(phenylamino)quinoline-3-carboxamide]
< 0.1	CNC(=O)c1cnc2ccc(-c3ccn(CCCCCCNC(=O)COc4cccc5c4C(=O)N(C4CCC(=O)NC4=O)C5=O)n3)cc2c1Nc1ccccc1 (centres unmarked) [Compound 361, 4-anilino-6-[1-[6-[[2-[2-(2,6-dioxo-3-piperidyl)-1,3-dioxo-isoindolin-4-yl]oxyacetyl]amino]hexyl]pyrazol-3-yl]-N-methyl-quinoline-3-carboxamide]
< 0.1	CNC(=O)c1cnc2ccc(C(=O)NCC(=O)N3CCN(C(=O)CNc4cccc5c4C(=O)N(C4CCC(=O)NC4=O)C5=O)CC3)cc2c1Nc1ccccc1 (centres unmarked) [Compound 348, 4-anilino-N6-[2-[4-[2-[[2-(2,6-dioxo-3-piperidyl)-1,3-dioxo-isoindolin-4-yl]amino]acetyl]piperazin-1-yl]-2-oxo-ethyl]-N3-methyl-quinoline-3,6-dicarboxamide]
< 0.1	CNC(=O)c1cnc2ccc(-c3ccc(C(=O)NCCCN4CCC(Nc5cccc6c5C(=O)N(C5CCC(=O)NC5=O)C6=O)CC4)cc3)cc2c1Nc1ccccc1 (centres unmarked) [Compound 366, 4-anilino-6-[4-[3-[4-[[2-(2,6-dioxo-3-piperidyl)-1,3-dioxo-isoindolin-4-yl]amino]-1-piperidyl]propylcarbamoyl]phenyl]-N-methyl-quinoline-3-carboxamide]
< 0.1	CNC(=O)c1cnc2cc(OC)c(OCC3CCN(CCCCNC(=O)CNc4cccc5c4C(=O)N(C4CCC(=O)NC4=O)C5=O)CC3)cc2c1Nc1ccccc1 (centres unmarked) [Compound 371, 6-((1-(4-(2-((2-(2,6-dioxopiperidin-3-yl)-1,3-dioxoisoindolin-4-yl)amino)acetamido)butyl)piperidin-4-yl)methoxy)-7-methoxy-N-methyl-4-(phenylamino)quinoline-3-carboxamide]
< 0.1	CNC(=O)c1cnc2cc(OC)c(-c3cnc(C(=O)NCCCCn4cc(CNc5cccc6c5C(=O)N(C5CCC(=O)NC5=O)C6=O)nn4)cn3)cc2c1Nc1ccccc1 (centres unmarked) [Compound 380, 6-(5-((4-(4-(((2-(2,6-dioxopiperidin-3-yl)-1,3-dioxoisoindolin-4-yl)amino)methyl)-1H-1,2,3-triazol-1-yl)butyl)carbamoyl)pyrazin-2-yl)-7-methoxy-N-methyl-4-(phenylamino)quinoline-3-carboxamide]
< 0.1	CNC(=O)c1cnc2ccc(-c3ccc(C(=O)NCCCCNC(=O)CNc4cccc5c4C(=O)N(C4CCC(=O)NC4=O)C5=O)c(F)c3)cc2c1Nc1ccccc1 (centres unmarked) [Compound 350, 4-anilino-6-[4-[4-[[2-[[2-(2,6-dioxo-3-piperidyl)-1,3-dioxo-isoindolin-4-yl]amino]acetyl]amino]butylcarbamoyl]-3-fluoro-phenyl]-N-methyl-quinoline-3-carboxamide]
< 0.1	CNC(=O)c1cnc2ccc(NCCCCCCCCCCNC(=O)COc3cccc4c3C(=O)N(C3CCC(=O)NC3=O)C4=O)cc2c1NC1CC1 (centres unmarked) [Compound 460, 4-(cyclopropylamino)-6-((10-(2-((2-(2,6-dioxopiperidin-3-yl)-1,3-dioxoisoindolin-4-yl)oxy)acetamido)decyl)amino)-N-methylquinoline-3-carboxamide]

SMILES	DC50 [µM]
CNC(=O)c1cnc2ccc(-c3ccc(OCCCCNC(=O)CNc4cccc5c4C(=O)N(C4CCC(=O)NC4=O)C5=O)nc3)cc2c1Nc1ccccc1 (centres unmarked) [Compound 369, 4-anilino-6-[6-[4-[[2-[[2-(2,6-dioxo-3-piperidyl)-1,3-dioxo-isoindolin-4-yl]amino]acetyl]amino]butoxy]-3-pyridyl]-N-methyl-quinoline-3-carboxamide]	< 0.1
